From US20110280940A1, “Di-Vanilloyl And Tri-Vanilloyl Derivatives For Use In Anti-Cancer Therapy” (priority 2008, published 2011) come the findings set out here.

Where two headings read alike, the source gives them in different places. Bounds are passed on as bounds.

In one test the test system is VM21 melanoma cells. Put plainly: MTT colorimetric assay, overall cell growth, VM21. Type of test: cell-based, human. As to conditions: Homo sapiens, read-out: In Vitro IC50 Growth Inhibitory Values, VM21. In outline:
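Growth is measured as remaining living cells relative to untreated controls after 72 h at 37 °C with compound at 10^-8 to 10^-4 M. Readout is MTT formazan absorbance at 570 nm.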
On the technique in general: Tetrazolium dyes change colour on reduction, which living cells bring about.

The target in another test is T1, DYRK1A kinase (Homo sapiens, UniProt Q13627).
T1 construct: made in house
Put plainly: Radiometric protein kinase assay (33 PanQinase), DYRK-1A. In kind it is biochemical. As to conditions: for IC50: dose-response 0-100 μM, n=3, read-out: IC50: Concentration of drug needed in order to inhibit kinase activity by 50%, DYRK-1A; for inhibition at 57 µM: read-out: inhibition of DYRK-1A activity. How it is done:
The kinase inhibition profile of DLT11 at 20 μM was determined using 250 protein kinases. […] A radiometric protein kinase assay (33 PanQinase®Activity Assay) was used for measuring the kinase activity of 250 protein kinases. All kinase assays were performed in 96-well flashPlates™ from Perkin Elmer (Boston, Mass., USA) in a 50 μl reaction volume. The reaction cocktail was pipetted in 4 steps in the following order: • 10 μl of non-radioactive ATP solution (in H2O) • 25 μl of assay buffer/[γ-33P]-ATP mixture • 5 μl of test sample in 10% DMSO • 10 μl of enzyme/substrate mixture
The kinase inhibition profile of DLT95-Cl at 20 μM was determined using 255 protein kinases. […] A radiometric protein kinase assay (33 PanQinase®Activity Assay) was used for measuring the kinase activity of 250 protein kinases. All kinase assays were performed in 96-well flashPlates™ from Perkin Elmer (Boston, Mass., USA) in a 50 μl reaction volume. The reaction cocktail was pipetted in 4 steps in the following order: • 10 μl of non-radioactive ATP solution (in H2O) • 25 μl of assay buffer/[γ-33P]-ATP mixture • 5 μl of test sample in 10% DMSO • 10 μl of enzyme/substrate mixture
(§1) The assay for all enzymes contained 60 mM HEPES-NaOH, pH 7.5, 3 mM MgCl2, 3 mM MnCl2, 3 μM Na-orthovanadate, 1.2 mM DTT, 50 μg/ml PEG20000, 1 μM ATP/[γ-33P]-ATP (approx. […] per well), protein kinase, and substrate. All PKC assays (except the PKC-mu and the PKC-nu assay) additionally contained 1 mM CaCl2, 4 mM EDTA, 5 μg/ml Phosphatidylserine and 1 μg/ml 1,2-Dioleyl-glycerol. The MYLK2, CAMK1D, CAMK2A, CAMK2B, CAMK2D, CAMK4, CAMKK2, DAPK2 and EEF2K assays additionally contained 1 μg/ml Calmodulin and 0.5 mM CaCl2. The PRKG1 and PRKG2 assays additionally contained 1 μM cGMP.
(§2) The protein kinases were expressed either in Sf9 insect cells or in E. coli as recombinant GST-fusion proteins or as His-tagged proteins. All kinases were produced from human cDNAs. Kinases were purified by affinity chromatography using either GSH-agarose (Sigma) or Ni-NTH-agarose (Qiagen). The purity of the protein kinases was examined by SDS-PAGE/coomassie staining. The identity of the protein kinases was checked by mass spectroscopy.
(§3) The reaction cocktails were incubated at 30° C. for 60 minutes. The reaction was stopped with 50 μl of 2% (v/v) H3PO4, plates were aspirated and washed two times with 200 μl 0.9% (w/v) NaCl. All assays were performed with a BeckmanCoulter Biomek 2000/SL robotic system.
(§4) Incorporation of ^33Pi (counting of “cpm”) was determined with a microplate scintillation counter (Microbeta, Wallac).
(§5) For each kinase, the median value of the cpm of three wells with complete reaction cocktails, but without kinase, was defined as “low control” […]. This value reflects unspecific binding of radioactivity to the plate in the absence of protein kinase but in the presence of the substrate. Additionally, for each kinase the median value of the cpm of three other wells with the complete reaction cocktail, but without any compound, was taken as the “high control”, i.e. full activity in the absence of any inhibitor […]. The difference between high and low control of was taken as 100% activity for each kinase. As part of the data evaluation the low control value of each kinase was subtracted from the high control value as well as from their corresponding “compound values”. The residual activity (in %) for each compound well was calculated by using the following formula: Res. Activity (%)=100×[(cpm of compound−low control)/(high control−low control)]

The next test has as its target T2, WEE1 kinase (Homo sapiens, UniProt P30291).
T2 construct: made in house
Put plainly: Radiometric protein kinase assay (33 PanQinase), WEE1. In kind it is biochemical. As to conditions: for IC50: dose-response 0-100 μM, n=3, read-out: IC50: Concentration of drug needed in order to inhibit kinase activity by 50%, WEE1; for inhibition at 57 µM: read-out: inhibition of WEE1 activity. On the procedure: A radiometric protein kinase assay (33 PanQinase®Activity Assay) was used for measuring the kinase activity of 250 protein kinases. All kinase assays were performed in 96-well flashPlates™ from Perkin Elmer (Boston, Mass., USA) in a 50 μl reaction volume. The reaction cocktail was pipetted in 4 steps in the following order: • 10 μl of non-radioactive ATP solution (in H2O) • 25 μl of assay buffer/[γ-33P]-ATP mixture • 5 μl of test sample in 10% DMSO • 10 μl of enzyme/substrate mixture
as §1, §2, §3, §4, §5

T2 sequence (P30291 whole entry): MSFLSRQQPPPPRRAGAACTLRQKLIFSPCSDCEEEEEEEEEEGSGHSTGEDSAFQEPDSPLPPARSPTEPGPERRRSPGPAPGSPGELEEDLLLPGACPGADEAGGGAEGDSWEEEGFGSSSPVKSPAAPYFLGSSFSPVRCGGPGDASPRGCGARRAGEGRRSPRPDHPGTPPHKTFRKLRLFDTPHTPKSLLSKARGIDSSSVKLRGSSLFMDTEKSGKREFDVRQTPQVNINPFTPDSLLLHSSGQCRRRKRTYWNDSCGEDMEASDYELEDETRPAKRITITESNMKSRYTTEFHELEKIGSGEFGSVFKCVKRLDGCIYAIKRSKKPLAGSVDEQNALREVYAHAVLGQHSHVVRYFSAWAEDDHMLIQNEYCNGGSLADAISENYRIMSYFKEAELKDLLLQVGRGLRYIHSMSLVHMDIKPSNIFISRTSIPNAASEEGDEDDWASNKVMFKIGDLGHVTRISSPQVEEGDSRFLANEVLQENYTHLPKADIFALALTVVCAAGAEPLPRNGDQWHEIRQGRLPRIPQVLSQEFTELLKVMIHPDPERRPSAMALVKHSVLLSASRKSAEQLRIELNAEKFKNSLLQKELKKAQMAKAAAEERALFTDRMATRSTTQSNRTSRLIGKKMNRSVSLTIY

With `COc1cc(C(=O)OCCCCCCOC(=O)c2ccc(O)c(OC)c2)ccc1O` [DLT11, Hexane-1,6-diyl bis-(4-hydroxy-3-methoxybenzoate)], in the test with VM21 melanoma cells (MTT, 72 hours of incubation), the IC50 is 71 µM. On DYRK1A kinase (20 μM (FIG. 3)), the “inhibition of Dyrk1A” value worked out at 5%.

In general, inhibition refers to the drop in the measured response relative to a control, in per cent. `O=C(OCc1cc(COC(=O)c2ccc(O)c(Cl)c2)cc(COC(=O)c2ccc(O)c(Cl)c2)c1)c1ccc(O)c(Cl)c1` [DLT95-Cl, [3,5-bis[(4-hydroxy-3-chloro-benzoyl)oxymethyl]phenyl]methyl 4-hydroxy-3-chloro-benzoate]: the values for the IC50 in the test on VM21 melanoma cells (72 h), on WEE1 kinase and at DYRK1A kinase were 35 µM, 3.74 µM and 3.2 µM, respectively. Further, the inhibition at 57 µM on WEE1 kinase and at DYRK1A kinase was no less than 50% each time.

Consider `COc1cc(C(=O)OCc2cc(COC(=O)c3ccc(O)c(OC)c3)cc(COC(=O)c3ccc(O)c(OC)c3)c2)ccc1O` [DLT95, [3,5-bis[(4-hydroxy-3-methoxy-benzoyl)oxymethyl]phenyl]methyl 4-hydroxy-3-methoxy-benzoate], for which the IC50 on WEE1 kinase and at DYRK1A kinase was greater than 100 µM each time.

`COc1cc(C(=O)OCCOC(=O)c2ccc(O)c(OC)c2)ccc1O` [DLT1, Ethane-1,2-diyl bis-(4-hydroxy-3-methoxybenzoate)]: the IC50 in the test on VM21 melanoma cells (MTT, 72 hours of incubation) came to 55 µM.

Regarding `O=C(OCc1cc(COC(=O)c2ccc(O)c(F)c2)cc(COC(=O)c2ccc(O)c(F)c2)c1)c1ccc(O)c(F)c1` [DLT95-F, [3,5-bis[(4-hydroxy-3-fluoro-benzoyl)oxymethyl]phenyl]methyl 4-hydroxy-3-fluoro-benzoate], the values for the IC50 in the test with VM21 melanoma cells (72 h), at WEE1 kinase and at DYRK1A kinase were 65 µM, 7.12 µM and 7.1 µM, respectively. The inhibition at 57 µM at WEE1 kinase and at DYRK1A kinase was no less than 50% each time.

In the case of `COc1cc(C(=O)O)ccc1O` [vanillic acid, reference compound], the IC50 with VM21 melanoma cells (MTT, 72 hours of incubation) is greater than 1000 µM; on WEE1 kinase, greater than 100 µM; on DYRK1A kinase, greater than 100 µM.
